# Values joined by “and” are separate entries in the source; they are usually repeats but may differ in a detail not shown here. Equal values may be shown once.
# Target: Adenosine A2A receptor (Homo sapiens, UniProt P29274)
# Experiment: Adenosine A2A receptor competitive binding assay (Tag-lite HTRF)
# Settings: Tag-lite adenosine A2A receptor ligand binding, 2 h room temperature; values separated by / are repeat determinations
# Protocol: Adenosine A2A Receptor Competitive Binding Assay
# The Tag-lite adenosine A2A receptor ligand binding assay is a homogeneous alternative to radioligand binding assay and developed by Cisbio (Bedford, Mass.). We carried out this assay following Cisbio's instructions with minor modification. Pre-transfected, fluorescent donor-labelled cells (Cisbio Cat#: C1TT1A2A, 200 testes) was stored at −80° C. and thawed right before use. Cells were washed once with 5 ml TLB and gently resuspended in 2 ml TLB. 4 μl suspended cells was dispensed into each well of white low-volume 384-well plate (Greiner Bio-One). Serial dilutions of compounds were prepared in Tag-lite buffer (TLB, Cisbio Cat #: LABMED) to a DMSO concentration of 0.6%. After adding 4 μl of compound dilutions to each well, 4 μl60 nM Adenosine A2A receptor red antagonist fluorescent ligand (Cisbio Cat #: L0058RED) was dispensed to each well. The 384-well assay plate was centrifuged briefly and incubated at room temperature for 2 h. HTRF signals were measured using CIARIOstar plate reader (BMG Labtech).
# Chain of Adenosine A2A receptor (P29274 whole entry): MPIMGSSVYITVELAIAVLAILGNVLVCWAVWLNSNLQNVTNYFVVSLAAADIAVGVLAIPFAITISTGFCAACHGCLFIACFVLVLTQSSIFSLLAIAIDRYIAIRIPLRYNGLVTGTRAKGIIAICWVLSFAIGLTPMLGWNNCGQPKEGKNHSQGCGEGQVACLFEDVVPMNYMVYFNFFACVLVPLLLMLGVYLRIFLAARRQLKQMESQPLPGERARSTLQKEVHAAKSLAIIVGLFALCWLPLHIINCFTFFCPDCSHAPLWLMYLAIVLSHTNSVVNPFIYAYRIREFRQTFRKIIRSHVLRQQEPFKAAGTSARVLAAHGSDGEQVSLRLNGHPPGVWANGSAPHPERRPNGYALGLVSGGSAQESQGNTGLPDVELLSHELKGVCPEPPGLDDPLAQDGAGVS
row,Structure (SMILES),IC50
1,"Cc1cc(-c2c(Oc3ccccc3)nc(N)nc2-c2ccc(F)cc2)cc(C(F)F)n1 [Example 47, 5-(2-(difluoromethyl)-6-methylpyridin-4-yl)-4-(4-fluorophenyl)-6-phenoxypyrimidin-2-amine]",21.3 nM
2,"CCN(CC)C(=O)OCc1nc(N)nc(-c2ccccc2)c1-c1cc(C)nc(C(F)(F)F)c1 [Example 21, (2-amino-5-(2-methyl-6-(trifluoromethyl)pyridin-4-yl)-6-phenylpyrimidin-4-yl)methyl diethylcarbamate]",111 nM
3,"Cc1cc(-c2c(OCc3nccn3C3CCOCC3)nc(N)nc2-c2ccc(F)cc2)cc(C(F)F)n1 [Example 172, 5-(2-(difluoromethyl)-6-methylpyridin-4-yl)-4-(4-fluorophenyl)-6-((1-(tetrahydro-2H-pyran-4-yl)-1H-imidazol-2-yl)methoxy)pyrimidin-2-amine]",165 nM
4,"CNCc1nc(N)nc(-c2ccccc2)c1-c1cc(C)nc(C(F)(F)F)c1 [Example 22, 5-(2-methyl-6-(trifluoromethyl)pyridin-4-yl)-4-((methylamino)methyl)-6-phenylpyrimidin-2-amine]",1780 nM
5,"Cc1cc(-c2c(OCC(O)C(C)(C)O)nc(N)nc2-c2ccc(F)cc2)cc(C(F)F)n1 (stereo not drawn) [Example 91, 1-((2-amino-5-(2-(difluoromethyl)-6-methylpyridin-4-yl)-6-(4-fluorophenyl)pyrimidin-4-yl)oxy)-3-methylbutane-2,3-diol]",> 1000 nM
6,"CCN(CC)C(=O)COc1nc(N)nc(-c2ccc(F)cc2)c1-c1cc(C)nc(C(F)(F)F)c1 [Example 27, 2-[[2-amino-6-(4-fluorophenyl)-5-[2-methyl-6-(trifluoromethyl)pyridin-4-yl]pyrimidin-4-yl]oxy]-N,N-diethylacetamide]",15.9 nM
7,"Cc1cc(-c2c(C(=O)NC3CCCc4cccnc43)nc(N)nc2-c2ccc(F)cc2)cc(C(F)F)n1 (stereo not drawn) [Example 100, 2-amino-5-(2-(difluoromethyl)-6-methylpyridin-4-yl)-6-(4-fluorophenyl)-N-(5,6,7,8-tetrahydroquinolin-8-yl)pyrimidine-4-carboxamide]",66 nM
8,"Cc1cc(-c2c(OCC3COC3)nc(N)nc2-c2ccc(F)cc2)cc(C(F)F)n1 [Example 37, 5-(2-(difluoromethyl)-6-methylpyridin-4-yl)-4-(4-fluorophenyl)-6-(oxetan-3-ylmethoxy)pyrimidin-2-amine]",10.2 nM
9,"CC(=O)N1CCC(Oc2ccc(CCOc3nc(N)nc(-c4ccccc4)c3-c3cc(C)nc(C(F)(F)F)c3)cc2)C1 (stereo not drawn) [Example 25, 1-(3-(4-(2-((2-amino-5-(2-methyl-6-(trifluoromethyl)pyridin-4-yl)-6-phenylpyrimidin-4-yl)oxy)ethyl)phenoxy)pyrrolidin-1-yl)ethan-1-one]",32 nM
10,"Cc1cc(-c2c(OC3CCOCC3)nc(N)nc2-c2ccc(F)cc2)cc(C(F)F)n1 [Example 33, 5-(2-(difluoromethyl)-6-methylpyridin-4-yl)-4-(4-fluorophenyl)-6-((tetrahydro-2H-pyran-4-yl)oxy)pyrimidin-2-amine]",66.5 nM
11,"Cc1cc(-c2c(OCCc3ccc(N4CCN(S(C)(=O)=O)CC4)cc3)nc(N)nc2-c2ccc(F)cc2)cc(C(F)F)n1 [Example 58, 5-(2-(difluoromethyl)-6-methylpyridin-4-yl)-4-(4-fluorophenyl)-6-(4-(4-(methylsulfonyl)piperazin-1-yl)phenethoxy)pyrimidin-2-amine]",28 nM
12,"Cc1cc(-c2c(CO)nc(N)nc2-c2ccccc2)cc(C(F)(F)F)n1 [Example 19, (2-amino-5-(2-methyl-6-(trifluoromethyl)pyridin-4-yl)-6-phenylpyrimidin-4-yl)methanol]",52 nM
13,"Cc1cc(-c2c(CNCC(F)(F)F)nc(N)nc2-c2ccccc2)cc(C(F)(F)F)n1 [Example 24, 5-(2-methyl-6-(trifluoromethyl)pyridin-4-yl)-4-phenyl-6-(((2,2,2-trifluoroethyl)amino)methyl)pyrimidin-2-amine]",118 nM
14,"Cc1cc(-c2c(OCC3CCN(S(C)(=O)=O)CC3)nc(N)nc2-c2ccc(F)cc2)cc(C(F)F)n1 [Example 96, 5-(2-(difluoromethyl)-6-methylpyridin-4-yl)-4-(4-fluorophenyl)-6-((1-(methylsulfonyl)piperidin-4-yl)methoxy)pyrimidin-2-amine]",61 nM
15,Cc1cc(-c2c(C(=O)NCc3cccc(C4CC4)n3)nc(N)nc2-c2ccc(F)cc2)cc(C(F)F)n1 [Example 109],205 nM
16,"Cc1cc(-c2c(C(=O)NCc3cccc(C(C)(C)O)n3)nc(N)nc2-c2ccc(F)cc2)cc(C(F)F)n1 [Example 110, 2-amino-5-(2-(difluoromethyl)-6-methylpyridin-4-yl)-6-(4-fluorophenyl)-N-((6-(2-hydroxypropan-2-yl)pyridin-2-yl)methyl)pyrimidine-4-carboxamide]",250 nM
17,"Cc1cc(-c2c(OCC(=O)Nc3ccccn3)nc(N)nc2-c2ccc(F)cc2)cc(C(F)F)n1 [Example 107, 2-((2-amino-5-(2-(difluoromethyl)-6-methylpyridin-4-yl)-6-(4-fluorophenyl)pyrimidin-4-yl)oxy)-N-(pyridin-2-yl)acetamide]",44 nM
18,"Cc1cc(-c2c(OCCc3ccc(C#N)cc3)nc(N)nc2-c2ccc(F)cc2)cc(C(F)F)n1 [Example 93, 4-(2-((2-amino-5-(2-(difluoromethyl)-6-methylpyridin-4-yl)-6-(4-fluorophenyl)pyrimidin-4-yl)oxy)ethyl)benzonitrile]",133 nM
19,"Cc1cc(-c2c(OCCc3ccc(N4CCN(C5COC5)CC4)cc3)nc(N)nc2-c2ccc(F)cc2)cc(C(F)F)n1 [Example 64, 5-[2-(difluoromethyl)-6-methylpyridin-4-yl]-4-(4-fluorophenyl)-6-(2-[4-[4-(oxetan-3-yl)piperazin-1-yl]phenyl]ethoxy)pyrimidin-2-amine]",31 nM
20,"CCN(CC)C(=O)CCc1nc(N)nc(-c2ccccc2)c1-c1cc(C)nc(C(F)(F)F)c1 [Example 18, 3-(2-amino-5-(2-methyl-6-(trifluoromethyl)pyridin-4-yl)-6-phenylpyrimidin-4-yl)-N,N-diethylpropanamide]",433 nM
21,"CC(=O)N1CCN(c2ccc(CCOc3nc(N)nc(-c4ccccc4)c3-c3cc(C)nc(C(F)(F)F)c3)cc2)CC1 [Example 20, 1-(4-(4-(2-((2-amino-5-(2-methyl-6-(trifluoromethyl)pyridin-4-yl)-6-phenylpyrimidin-4-yl)oxy)ethyl)phenyl)piperazin-1-yl)ethan-1-one]",26.6 nM
22,"Cc1cc(-c2c(OCCN3CCN(S(C)(=O)=O)CC3)nc(N)nc2-c2ccc(F)cc2)cc(C(F)F)n1 [Example 49, 5-(2-(difluoromethyl)-6-methylpyridin-4-yl)-4-(4-fluorophenyl)-6-(2-(4-(methylsulfonyl)piperazin-1-yl)ethoxy)pyrimidin-2-amine]",13.9 nM
23,"Cc1cc(-c2c(OCC(=O)NC3CCOCC3)nc(N)nc2-c2ccc(F)cc2)cc(C(F)F)n1 [Example 40, 2-((2-amino-5-(2-(difluoromethyl)-6-methylpyridin-4-yl)-6-(4-fluorophenyl)pyrimidin-4-yl)oxy)-N-(tetrahydro-2H-pyran-4-yl)acetamide]",295 nM
24,"Cc1cc(-c2c(CN(C)C)nc(N)nc2-c2ccccc2)cc(C(F)(F)F)n1 [Example 23, 4-((dimethylamino)methyl)-5-(2-methyl-6-(trifluoromethyl)pyridin-4-yl)-6-phenylpyrimidin-2-amine]",1780 nM
25,"Cc1cc(-c2c(OC3COC3)nc(N)nc2-c2ccc(F)cc2)cc(C(F)F)n1 [Example 34, 5-(2-(difluoromethyl)-6-methylpyridin-4-yl)-4-(4-fluorophenyl)-6-(oxetan-3-yloxy)pyrimidin-2-amine]",45.3 nM
26,"Cc1cc(-c2c(OCCc3ccc(N4CCC(=O)CC4)cc3)nc(N)nc2-c2ccccc2)cc(C(F)(F)F)n1 [Example 26, 1-(4-(2-((2-amino-5-(2-methyl-6-(trifluoromethyl)pyridin-4-yl)-6-phenylpyrimidin-4-yl)oxy)ethyl)phenyl)piperidin-4-one]",43 nM and 26.8 nM
27,"COC(=O)Nc1ccc(CCOc2nc(N)nc(-c3ccc(F)cc3)c2-c2cc(C)nc(C(F)F)c2)cc1 [Example 72, Methyl(4-(2-((2-amino-5-(2-(difluoromethyl)-6-methylpyridin-4-yl)-6-(4-fluorophenyl)pyrimidin-4-yl)oxy)ethyl)phenyl)carbamate]",41 nM

# Same assay, conditions: Tag-lite adenosine A2A receptor ligand binding, HTRF
row,Structure (SMILES),IC50 [nM]
1,"Cc1cc(-c2c(OCc3nccn3CCC(C)(C)C(=O)O)nc(N)nc2-c2ccc(F)cc2)cc(C(F)F)n1 [Example 216, 4-(2-(((2-amino-5-(2-(dilfluoromethyl)-6-methylpyridin-4-yl)-6-(4-fluorophenyl)pyrimidin-4-yl)oxy)methyl)-1H-imidazol-1-yl)-2,2-dimethylbutanoic acid]",306
2,"CCn1cnnc1COc1nc(N)nc(-c2ccc(F)cc2)c1-c1cc(C)nc(C(F)F)c1 [Example 222, 5-(2-(difluoromethyl)-6-methylpyridin-4-yl)-4-((4-ethyl-4H-1,2,4-triazol-3-yl)methoxy)-6-(4-fluorophenyl)pyrimidin-2-amine]",15
3,"CCc1nnn(C)c1COc1nc(N)nc(-c2ccc(F)cc2)c1-c1cc(C)nc(C(F)F)c1 [Example 200, 5-(2-(difluoromethyl)-6-methylpyridin-4-yl)-4-((4-ethyl-1-methyl-1H-1,2,3-triazol-5-yl)methoxy)-6-(4-fluorophenyl)pyrimidin-2-amine]",13

# Source: patent US20210355104A1, “ADENOSINE RECEPTOR BINDING COMPOUNDS” (Nikang Therapeuticsm Inc., priority 2018, published 2021)
